{"source": "patent US10865157B2", "about": "“Methods and compositions for increasing the yield of, and beneficial chemical composition of, certain plants” (B.K. Consultants, Inc., priority 2014, dated 2020)", "origin": "cited, not measured here", "conditions": "similarly sized particles"}
{"compound": "CC(=O)Oc1ccccc1C(=O)O", "note": "[non-crystalline aspirin, aspirin]", "values": [{"measurement": "solubility in water relative to the crystal form", "result": "2 to 8", "unit": "times"}]}
